According to patent US10040791B2, “Isoxazole derivative as mutant isocitrate dehydrogenase 1 inhibitor” (Daiichi Sankyo Company, Limited, priority 2014, dated 2018):

What was measured:
[1] = biological target: IDH1R132C (Homo sapiens (Human), UniProt O75874, R132C); experiment: Inhibitory activity against IDH1R132C enzyme (NADPH detection, WST-8); format: biochemical; conditions: 10 nM, residual NADPH detected with WST-8, read-out: Test Example 1 IDH1 R132C IC50
[2] = test system: HT-1080 cells expressing IDH1R132C; experiment: 2-HG production inhibitory activity using HT1080 cell; format: cell-based, human; conditions: Homo sapiens, HT-1080; 2-HG production, HT1080 cells; read-out: Test Example 3 IC50
Description: Then, 100 μL of growth medium B was added to each well, further 25 μL of a solution of each compound diluted to a predetermined concentration with growth medium B was added to each well, and the cells were incubated at 37° C. for 2 days under 5% CO2. […] Then, 150 μL of ultrapure water was further added to each well, and the mixture was stirred by pipetting and stored at −20° C.
The preserved solutions were thawed at room temperature.

[3] = test system: HT1080 xenografted mice (IDH1R132C); experiment: 2-HG production inhibitory activity using HT1080 xenografted mice; format: in vivo, mouse; conditions: Mus musculus, HT-1080, po, 6 h, 2-HG production, HT1080 xenografted mice; read-out: Test Example 5 Ratio (%)
Outline: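 Mice bearing HT1080 tumors received 75 mg/kg compound by oral gavage twice a day, three doses in total, at 10 mL/kg; vehicle-dosed mice were negative controls. Tumors were collected 6 h after the final dose, frozen, homogenized in methanol and centrifuged, and 2-HG was measured in the extracts.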

Chain of IDH1R132C (O75874 whole entry R132C): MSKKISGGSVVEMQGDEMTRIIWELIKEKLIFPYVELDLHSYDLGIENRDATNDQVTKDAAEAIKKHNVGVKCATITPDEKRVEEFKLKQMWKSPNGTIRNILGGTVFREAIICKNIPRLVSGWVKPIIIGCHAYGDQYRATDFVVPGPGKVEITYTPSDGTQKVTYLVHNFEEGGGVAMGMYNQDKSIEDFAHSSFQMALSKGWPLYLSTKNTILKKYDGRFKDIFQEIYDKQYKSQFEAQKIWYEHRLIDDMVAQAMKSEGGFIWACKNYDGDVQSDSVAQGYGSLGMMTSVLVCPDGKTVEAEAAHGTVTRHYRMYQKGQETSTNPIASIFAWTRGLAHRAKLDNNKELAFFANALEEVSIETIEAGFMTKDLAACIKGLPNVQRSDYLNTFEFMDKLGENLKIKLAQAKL

SMILES	IC50 [1] [nM]	IC50 [2] [nM]	response vs control in vivo at 75 mg/kg [3] [%]
C=CC(=O)N1C[C@@H](C)N(c2onc(-c3c(Cl)cc(Cl)cc3Cl)c2C(=O)n2ccc3c(/C=C/C(=O)O)cccc32)C[C@H]1C [Example 152, (2E)-3-[1-({5-[(2R,5R)-4-Acryloyl-2,5-dimethylpiperazin-1-yl]-3-(2,4,6-trichlorophenyl)-1,2-oxazol-4-yl}carbonyl)-1H-indol-4-yl]prop-2-enoic acid]	222	276	87
C=CC(=O)N1CCN(c2onc(-c3c(Cl)cccc3Cl)c2C(=O)n2ccc3c(/C=C/C(=O)O)cccc32)[C@H](C2CC2)C1 [Example 154, (2E)-3-[1-({5-[(2R)-4-Acryloyl-2-cyclopropylpiperazin-1-yl]-3-(2,6-dichlorophenyl)-1,2-oxazol-4-yl}carbonyl)-1H-indol-4-yl]prop-2-enoic acid]	235	294	45
C=CC(=O)N1CCN(c2onc(-c3c(F)cccc3Cl)c2C(=O)n2ccc3c(/C=C/C(=O)O)cccc32)C(C)(C)C1 [Example 157, (2E)-3-(1-{[5-(4-Acryloyl-2,2-dimethylpiperazin-1-yl)-3-(2-chloro-6-fluorophenyl)-1,2-oxazol-4-yl]carbonyl}-1H-indol-4-yl)prop-2-enoic acid]	256	265	89
C=CC(=O)N1CC2(CC2)N(c2onc(-c3c(Cl)cccc3OC)c2C(=O)n2ccc3c(/C=C/C(=O)O)cccc32)C[C@H]1C [Example 158, (2E)-3-[1-({5-[(6R)7-Acryloyl-6-methyl-4,7-diazaspiro[2.5]oct-4-yl]-3-(2-chloro-6-methoxyphenyl)-1,2-oxazol-4-yl}carbonyl)-1H-indol-4-yl]prop-2-enoic acid]	179	178	62
Cn1cc(C(=O)c2c(-c3c(Cl)cc(Cl)cc3Cl)noc2C(C)(C)C)c2ccc3ccc(C(=O)O)cc3c21 [Example 167, 3-{[5-tert-Butyl-3-(2,4,6-trichlorophenyl)-1,2-oxazol-4-yl]carbonyl}-1-methyl-1H-benzo[g]indole-8-carboxylic acid]	196	195	87

These reach a lower IC50 [1]. Values come first.

IC50 [1] [nM]	IC50 [2] [nM]	SMILES	response vs control in vivo at 75 mg/kg [3] [%]
167	167	C=CC(=O)N1CC2(CC2)N(c2onc(-c3c(F)cccc3Cl)c2C(=O)n2ccc3c(/C=C/C(=O)O)cccc32)C[C@H]1C [Example 156, (2E)-3-[1-({5-[(6R)7-Acryloyl-6-methyl-4,7-diazaspiro[2.5]oct-4-yl]-3-(2-chloro-6-fluorophenyl)-1,2-oxazol-4-yl}carbonyl)-1H-indol-4-yl]prop-2-enoic acid]	60
141	299	C=CC(=O)N1CCC(c2onc(-c3c(Cl)cc(Cl)cc3Cl)c2C(=O)c2cn(C)c3c(/C=C/C(=O)O)cccc23)CC1 [Example 166, (2E)-3-(3-{[5-(1-Acryloylpiperidin-4-yl)-3-(2,4,6-trichlorophenyl)-1,2-oxazol-4-yl]carbonyl}-1-methyl-1H-indol-7-yl)prop-2-enoic acid]	81
122	55	C=CC(=O)N1CC2(CC2)N(c2onc(-c3c(Cl)cccc3Cl)c2C(=O)n2ccc3c(/C=C/C(=O)O)cccc32)C[C@H]1C [Example 155, (2E)-3-[1-({5-[(6R)7-Acryloyl-6-methyl-4,7-diazaspiro[2.5]oct-4-yl]-3-(2,6-dichlorophenyl)-1,2-oxazol-4-yl}carbonyl)-1H-indol-4-yl]prop-2-enoic acid]	41
98	121	C=CC(=O)N1CC2(CC2)N(c2onc(-c3c(Cl)cccc3OC)c2C(=O)n2ccc3c(/C=C/C(=O)O)cccc32)C[C@H]1CC [Example 161, (2E)-3-[1-({5-{(6R)7-Acryloyl-6-ethyl-4,7-diazaspiro[2.5]oct-4-yl]-3-(2-chloro-6-methoxyphenyl)-1,2-oxazol-4-yl}carbonyl)-1H-indol-4-yl]prop-2-enoic acid]	72
98	45	C=CC(=O)N1CC2(CC2)N(c2onc(-c3c(Cl)cccc3Cl)c2C(=O)n2ccc3c(/C=C/C(=O)O)cccc32)C[C@H]1CC [Example 163, (2E)-3-[1-({5-[(6R)7-Acryloyl-6-ethyl-4,7-diazaspiro[2.5]oct-4-yl]-3-(2,6-dichlorophenyl)-1,2-oxazol-4-yl}carbonyl)-1H-indol-4-yl]prop-2-enoic acid]	33
84	138	C=CC(=O)N1C[C@@H](C)N(c2onc(-c3c(Cl)cccc3Cl)c2C(=O)n2ccc3c(/C=C/C(=O)O)cccc32)C2(CC2)C1 [Example 159, (2E)-3-[1-({5-[(5R)7-Acryloyl-5-methyl-4,7-diazaspiro[2.5]oct-4-yl]-3-(2,6-dichlorophenyl)-1,2-oxazol-4-yl}carbonyl)-1H-indol-4-yl]prop-2-enoic acid]	30
81	106	C=CC(=O)N1CC2(CC2)N(c2onc(-c3c(F)cccc3Cl)c2C(=O)n2ccc3c(/C=C/C(=O)O)cccc32)C[C@H]1CC [Example 160, (2E)-3-[1-({5-[(6R)7-Acryloyl-6-ethyl-4,7-diazaspiro[2.5]oct-4-yl]-3-(2-chloro-6-fluorophenyl)-1,2-oxazol-4-yl}carbonyl)-1H-indol-4-yl]prop-2-enoic acid]	47
